What was measured:
[1] = system: Mouse lung epithelial (C10) cells; experiment: NO/S-nitrosothiol content of cell lysates by chemiluminescence; assay type: cell-based; settings: 1 mM GSNO, about one hour
Method: A line of spontaneously transformed mouse lung alveolar type II epithelial cells (C10) was used in some experiments, as described below. […] In experiments involving microscopic analysis, the cells were grown on glass cover slips. At about one hour prior to exposure to a test agent, the medium was switched to phenol red free DMEM/F12 containing 0.5% FBS. Some cells were exposed to S-nitroso-glutathione (GSNO) or S-nitroso-N-acetyl penicillamine (SNAP) for about 1 hour, in the presence of an equimolar concentration of freshly prepared L-cysteine. To monitor S-nitrosylation in response to NOS2 activation, the cells were treated with 10 ng/ml TNF alpha (TNFα) and 100 U/ml interferon gamma (IFNγ), for about 24 hours. […] S-nitrosothiols were detected in cell lysates or immunoprecipitated protein by chemiluminescence, using a nitric oxide analyzer (Ionics, Boulder, Colo.). […] In order to eliminate the contribution of nitrites to the observed photoelectric signal, the cell lysates were incubated with a nitrite quencher, sulfanilamide, and assessed the sulfanilamide resistant NO signal by chemiluminescence. Under these experimental conditions, employing 12 micrograms of protein, S-nitrosthiol was not detected in the sham controls (<5 pmol), but a sulfamilamide-resistant NO signal was detected in lysates from cells treated with GSNO.

C10 cells = experiment: In situ detection of S-nitrosylated proteins in intact cells (biotin derivatization, streptavidin-FITC, confocal microscopy); assay type: cell-based, mouse; settings: 1 mM, 1 hour
Method: A line of spontaneously transformed mouse lung alveolar type II epithelial cells (C10) was used in some experiments, as described below. C10 cells were cultured in CMRL1066 medium containing 10% fetal bovine serum (FBS, GIBCO). In experiments involving microscopic analysis, the cells were grown on glass cover slips. At about one hour prior to exposure to a test agent, the medium was switched to phenol red free DMEM/F12 containing 0.5% FBS. Some cells were exposed to S-nitroso-glutathione (GSNO) or S-nitroso-N-acetyl penicillamine (SNAP) for about 1 hour, in the presence of an equimolar concentration of freshly prepared L-cysteine. To monitor S-nitrosylation in response to NOS2 activation, the cells were treated with 10 ng/ml TNF alpha (TNFα) and 100 U/ml interferon gamma (IFNγ), for about 24 hours. Incubation with L-N-monomethyl arginine (L-NMMA) for about 16 hours was used to inhibit endogenous NO production and D-NMMA (D-N-monomethyl arginine) was used as a control. Nuclear export was blocked by leptomycin B (5 ng/ml, exposure for about 12 hours). All experiments were performed in duplicate and were repeated at least three times.
To evaluate the localization of S-nitrosylated proteins in intact cells, the biotin derivatization method described above was used in combination with fluorophore labeling and visualized using confocal microscopy. Cells grown on cover slips were rinsed with PBS containing 0.1 mM EDTA and 0.01 mM neocuproine, and fixed in 4% PFA (paraformaldehyde) for 20 minutes at RT. The cells were permeabilized, and protein SH groups were blocked using HEN buffer containing 2.5% SDS, 0.5% CHAPS, and 20 mM MMTS (methylmethanethiosulfonate) for 20 min at 55° C. with constant shaking. After removal of MMTS, the cells were incubated with 1 mM sodium ascorbate and 0.4 mM biotin-HPDP (N-[6-(biotinamido)hexyl]-3′-(2′-pyridyldithio)propionamide) for about an hour at RT, and the cover slips were then incubated overnight with streptavidin-FITC at 4° C. Blocking was performed using 20 mM NEM for 30 minutes at 4° C., followed by incubation with 0.05 mM MPB and 1 mM sodium ascorbate for 1 hour at RT. The nuclei were stained with 10 microgram/ml PI (propidium iodide) for 30 minutes at RT. The cells were analyzed by confocal microscopy (magnification 40×) using an Olympus BX50 microscope coupled to a Bio-Rad (Hercules Calif.) MRC 1024 confocal scanning laser microscope system. Control experiments were also performed in which blocking of SH groups was omitted, or in which 100 micromolar HgCl2 was added prior to blocking of SH groups with MMTS or NEM. To assess the contribution of endogenous biotinylated proteins, the biotin-label was omitted in some control cover slips. All manipulations were performed in the dark. […]

lungs of Balb/c mice = experiment: Detection of S-nitrosylated proteins in frozen lung sections after intratracheal administration; assay type: in vivo, mouse; settings: 50 microliters of 10 mM intratracheally, about 2 hours, versus PBS
RanGTPase [2] = biological target: T1, RanGTPase (Mus musculus, UniProt P62827); experiment: SNO content of immunoprecipitated RanGTPase by chemiluminescence; assay type: cell-based; settings: 1 mM, about 1 hour
T1 construct: Ran was immunoprecipitated from equivalent amounts of total cell lysates; endogenous in cells; host or cells: C10 mouse lung alveolar type II epithelial cells
Method: S-nitrosothiols were detected in cell lysates or immunoprecipitated protein by chemiluminescence, using a nitric oxide analyzer (Ionics, Boulder, Colo.). Cell lysates were incubated for about 15 minutes in the presence or absence of sulfanilamide (0.5%).
Ran was immunoprecipitated from equivalent amounts of total cell lysates, using a Ran goat polyclonal IgG (Santa Cruz) and protein G-agarose beads. The immunoprecipitates were washed three times with HEN buffer (25 mM HEPES, pH 7.7, 0.1 mM EDTA, 0.01 mM neocuproine) and the immunocomplexes were injected into the purge vessel for NO analysis.
Chemiluminescence was first performed to detect the S-nitrosylation of immunoprecipitated RanGTPase. […] In these experiments, the cells were treated with 1 mM GSNO for about 1 hour, washed, and Ran was immunoprecipitated form the total lysate using a Ran-specific antibody and protein G agarose beads. The immunocomplexes were washed three times and directly injected into the purge vessel using techniques similar to those described in Example 1. As a control, pre-immune IgG was used instead of Ran antibody. Western blot analysis confirmed the presence of RanGTPase in the immunocomplexes (FIG. 7B).

RanGTPase [3] = biological target: T1, RanGTPase; experiment: Biotin derivatization of RanGTPase, immunoprecipitation, Western blot with streptavidin-HRP; assay type: cell-based; settings: after treatment of cells, versus basal
Method: Biotin labeling of S-nitrosylated proteins in cell lysates proceeded as follows. At selected time points, cells were rinsed with PBS containing 0.1 mM EDTA and 0.01 mM neocuproine and lysed in HEN buffer containing 0.1% SDS, 0.5% CHAPS, and 20 mM NEM (N-ethylmaleimide) by rocking for 30 minutes at 4° C. The lysates were centrifuged at 14,000 g at 4° C. for about 10 minutes, and the excess NEM used to block sulfhydryl groups (SH) was removed by protein precipitation with acetone. The pellets were resuspended in HEN buffer containing 1% SDS (HENS), and the S-nitrosothiols were reduced and biotinylated by the simultaneous addition of 10 mM sodium ascorbate and 0.05 mM of the sulfhydryl-specific biotinylating agent, MPB (N-(3-maleimidylpropionyl) biocytin, Molecular Probes), for 1 hour at room temperature (RT, about 25° C.). […] Biotinylation of Ran was detected using streptavidin-HRP. […]
To confirm that RanGTPase itself was S-nitrosylated, a biotin derivatization approach was used, including immunoprecipitating RanGTPase and determining biotinylated RanGTPase by Western blotting using streptavidin-HRP. […] Ran was immunoprecipitated from total cell lysates, and biotinylated RanGTPase was determined by Western blotting and by peroxidase-conjugated streptavidin (FIG. 7C, upper panel). […] In the lower panel of FIG. 7C, as a loading control, Ran was detected in whole cell lysates by Western blotting.

## N[C@@H](CCC(=O)N[C@@H](CSN=O)C(=O)NCC(=O)O)C(=O)O [GSNO, S-nitroso-glutathione]
[1]; 12 micrograms of protein
  sulfanilamide-resistant NO signal (S-nitrosothiol) in lysates: detected
[1]; versus non-treated cells
  total NO content in lysates: increased
C10 cells
  biotinylation (S-nitrosylated proteins) in intact cells: enhanced
Lungs of Balb/c mice
  biotin reactivity (S-nitrosylated proteins) in lungs: markedly increased
RanGTPase [2]
  SNO content of immunoprecipitated RanGTPase: increase
RanGTPase [3]
  biotinylation of RanGTPase: enhanced
